Reference: the NIST ThermoML archive (doi:10.1016/j.jct.2018.09.027)

Assay: molar heat capacity at constant pressure
Conditions: 100 kPa, Crystal, DSC

O=c1oc2c(O)c(O)cc3c(=O)oc4c(O)c(O)cc1c4c23 [2,3,7,8-tetrahydroxychromeno[5,4,3-cde]chromene-5,10-dione]
Conditions	molar heat capacity at constant pressure [J/K/mol]
260.15 K	292.07
261.15 K	292.68
262.15 K	293.58
263.15 K	294.64
264.15 K	295.85
265.15 K	297.06
266.15 K	297.97
267.15 K	298.87
268.15 K	299.93
269.15 K	301.59
270.15 K	303.41
271.15 K	303.41
272.15 K	304.01
273.15 K	305.37
274.15 K	307.49
275.15 K	308.39
276.15 K	308.09
277.15 K	308.54
278.15 K	310.36
279.15 K	311.57
280.15 K	311.26
281.15 K	312.62
282.15 K	314.29
283.15 K	315.19
284.15 K	315.95
285.15 K	316.25
286.15 K	317.16
287.15 K	318.97
288.15 K	320.33
289.15 K	319.72
290.15 K	320.48
291.15 K	321.84
292.15 K	323.35
293.15 K	323.05
294.15 K	324.26
295.15 K	325.47
296.15 K	326.4
297.15 K	327.73
298.15 K	328.85
299.15 K	329.64
300.15 K	330.7
301.15 K	331.91
302.15 K	332.12
303.15 K	333.63
304.15 K	334.99
305.15 K	335.69
306.15 K	336.45
307.15 K	337.53
308.15 K	338.02
309.15 K	339.27
310.15 K	339.49
311.15 K	340.77
312.15 K	341.16
313.15 K	342.26
314.15 K	343.3
315.15 K	343.78
316.15 K	345.03
317.15 K	346.85
318.15 K	347.5
319.15 K	348.3
320.15 K	349.21
321.15 K	350.81
322.15 K	351.92
323.15 K	352.53
324.15 K	353.13
325.15 K	354.43
326.15 K	355.55
327.15 K	356.86
328.15 K	357.07
329.15 K	358.38
330.15 K	359.69
331.15 K	361.39
332.15 K	362.3
333.15 K	363.1
334.15 K	364.21
335.15 K	365.02
336.15 K	366.23
337.15 K	367.13
338.15 K	368.24
339.15 K	369.55
340.15 K	370.36
341.15 K	370.96
342.15 K	371.07
343.15 K	372.48
344.15 K	373.08
345.15 K	373.69
346.15 K	374.1
347.15 K	375.31
348.15 K	376.31
349.15 K	377.02
350.15 K	378.82
351.15 K	379.03
352.15 K	379.54
353.15 K	381.35
354.15 K	383.99
355.15 K	385.91
356.15 K	385.3
357.15 K	386.51
358.15 K	387.62
359.15 K	388.02
360.15 K	390.04
361.15 K	391.3
362.15 K	392.55
363.15 K	393.1
364.15 K	393.5
365.15 K	394.2
366.15 K	395.1
367.15 K	396
368.15 K	396.5
369.15 K	397.3
370.15 K	397.8
371.15 K	398
372.15 K	399.5
373.15 K	400.1
374.15 K	401.2
375.15 K	402.5
376.15 K	403.1
377.15 K	403.8
378.15 K	404.5
379.15 K	405.3
380.15 K	406.12
381.15 K	407.6
382.15 K	408.2
383.15 K	409.5
384.15 K	410.1
385.15 K	411.31
386.15 K	412.22
387.15 K	413.52
388.15 K	414.82
389.15 K	415.43
390.15 K	416.64
391.15 K	417.54
392.15 K	418.85
393.15 K	419.15
394.15 K	420.36
395.15 K	421.26
396.15 K	421.57
397.15 K	422.17
398.15 K	423.08
399.15 K	423.98
400.15 K	424.59
401.15 K	424.59
402.15 K	425.19
403.15 K	426.4
404.15 K	427.31
405.15 K	427
406.15 K	427.31
407.15 K	427.91
408.15 K	429.42
409.15 K	430.03
410.15 K	430.78
411.15 K	431.39
412.15 K	432.44
413.15 K	432.9
414.15 K	433.5
415.15 K	434.56
416.15 K	435.77
417.15 K	436.2
418.15 K	437
419.15 K	438.2
420.15 K	439.1
421.15 K	440.5
422.15 K	441.2
423.15 K	442.3
424.15 K	443.93
425.15 K	444.5
426.15 K	444.8
427.15 K	445.1
428.15 K	445.9
429.15 K	446.2
430.15 K	446.8
431.15 K	447.3
432.15 K	448.2
433.15 K	448.6
434.15 K	449.4
435.15 K	450.58
436.15 K	451.79
437.15 K	452.39
438.15 K	452.69
439.15 K	452.99
440.15 K	453.9
441.15 K	454.71
442.15 K	455.32
443.15 K	455.41
444.15 K	455.71
445.15 K	456.02
446.15 K	457.53
447.15 K	457.83
448.15 K	458.43
449.15 K	459.04
450.15 K	459.64
451.15 K	459.94
452.15 K	460.2
453.15 K	460.85
454.15 K	461.14
455.15 K	460.85
456.15 K	461.3
457.15 K	461.76
458.15 K	462.11
459.15 K	462.61
460.15 K	463.82
461.15 K	464.57
462.15 K	465.08
463.15 K	466.38
464.15 K	467.05
465.15 K	468.71
466.15 K	468.5
467.15 K	469
468.15 K	469.5
469.15 K	470.1
470.15 K	470.8
471.15 K	471.2
472.15 K	471.5
473.15 K	472.94
474.15 K	473.85
475.15 K	474.15
476.15 K	474.75
477.15 K	475.05
478.15 K	476.26
479.15 K	477.17
480.15 K	477.47
481.15 K	478.38
482.15 K	479.59
483.15 K	480.19
484.15 K	480.39
485.15 K	481.19
486.15 K	482
487.15 K	482.31
488.15 K	482.61
489.15 K	483.31
490.15 K	484.21
491.15 K	485.63
492.15 K	486.93
493.15 K	487.54
494.15 K	488.84
495.15 K	489.26
496.15 K	489.26
497.15 K	489.56
498.15 K	489.26
499.15 K	490.77
500.15 K	491.28
501.15 K	492.18
502.15 K	493.28
503.15 K	494.19
504.15 K	495
505.15 K	495.3
506.15 K	495
507.15 K	494.7
508.15 K	495
509.15 K	495
510.15 K	495.3
511.15 K	496
512.15 K	497.72
513.15 K	497.82
514.15 K	498.32
515.15 K	499.23
516.15 K	499.5
517.15 K	500.1
518.15 K	501.3
519.15 K	501.8
520.15 K	502.5
521.15 K	503.1
522.15 K	503.6
